pIC50: −log10 of the molar value. Like-named read-outs stand apart in the source and are kept apart here.
Tests used:
Format in all cases: biochemical
MMP1 = molecular target: T1, MMP1 (Homo sapiens, UniProt P03956); test: MMP-1 colorimetric inhibition assay (Enzo kit BML-AK404)
T1 sequence (P03956 100-269 limits assumed): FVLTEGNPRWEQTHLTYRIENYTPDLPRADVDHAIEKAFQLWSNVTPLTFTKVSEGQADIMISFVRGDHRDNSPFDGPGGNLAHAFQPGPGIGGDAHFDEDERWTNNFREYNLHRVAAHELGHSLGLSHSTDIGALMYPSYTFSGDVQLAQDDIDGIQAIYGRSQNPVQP
Protocol: (§1) The inhibitory activities of the compounds of the invention were assessed in 96-well microplate format using MMP1, MMP2, MMP9 and MMP13 colorimetric assay kits and TACE fluorometric assay kit from Enzo Life Sciences, Inc. The inhibitory effect of the compounds of the invention on ADAM10 activity were evaluated in 96-well microplate format using fluorometric assay from AnaSpec, Inc.
(§2) The MMP-1 Colorimetric Drug Discovery Kit (catalog #BML-AK404) is a complete assay system designed to screen inhibitors of matrix metalloproteinase-1 using a thiopeptide as a chromogenic substrate (Ac-PLG-[2-mercapto-4-methylpentanoyl]-LG-OC2H5). The MMP cleavage site peptide bond is replaced by a thioester bond in the thiopeptide. Hydrolysis of this bond by an MMP produces a sulfhydryl group, which reacts with DTNB [5,5′-dithiobis(2-nitrobenzoic acid), Ellman's reagent] to form 2-nitro-5-thiobenzoic acid, that can be detected spectrophotometrically.
(§3) The inhibitory activities of the compounds of the invention against MMP1, MMP2, MMP9 and MMP13 were tested according to the manufacturer's assay protocols and the absorbance at 415 nm was monitored using the Tecan Infinite® 200 Pro F Nano^+ microplate reader.
(§4) The normalized values were analyzed using GraphPadPrism 9 for Windows (GraphPad Software, San Diego, CA, USA) software by plotting inhibition curves and determining the IC50 values (in nM).

MMP9 = MMP9 (Homo sapiens, UniProt P14780); test: MMP-9 colorimetric inhibition assay (Enzo kit BML-AK410)
Protocol: as §1
as §2, with “MMP-9” for “MMP-1”, “#BML-AK410)” for “#BML-AK404)”, “metalloproteinase-9” for “metalloproteinase-1”
as §3, §4

MMP2 = molecular target: T2, MMP2 (Homo sapiens, UniProt P08253); test: MMP-2 colorimetric inhibition assay (Enzo kit BML-AK408)
T2 sequence (P08253 110-660): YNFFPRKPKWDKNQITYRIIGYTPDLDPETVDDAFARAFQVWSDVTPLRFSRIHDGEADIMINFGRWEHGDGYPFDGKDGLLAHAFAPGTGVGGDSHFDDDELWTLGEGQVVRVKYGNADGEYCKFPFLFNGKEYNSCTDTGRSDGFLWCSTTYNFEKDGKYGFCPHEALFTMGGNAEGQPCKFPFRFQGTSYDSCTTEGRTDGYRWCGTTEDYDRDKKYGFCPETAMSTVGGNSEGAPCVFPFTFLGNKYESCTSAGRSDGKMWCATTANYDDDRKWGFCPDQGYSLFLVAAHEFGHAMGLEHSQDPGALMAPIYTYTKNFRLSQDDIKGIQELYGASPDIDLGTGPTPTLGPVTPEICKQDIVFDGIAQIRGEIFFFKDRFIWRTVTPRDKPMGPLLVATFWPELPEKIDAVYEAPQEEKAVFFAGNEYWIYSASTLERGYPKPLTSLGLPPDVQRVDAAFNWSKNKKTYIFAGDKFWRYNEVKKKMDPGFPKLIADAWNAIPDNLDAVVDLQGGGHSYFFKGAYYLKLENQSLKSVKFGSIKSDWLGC
Protocol: as §1
as §2, with “MMP-2” for “MMP-1”, “#BML-AK408)” for “#BML-AK404)”, “screen MMP-2” for “screen”, “inhibitors” for “inhibitors of matrix metalloproteinase-1”
as §3, §4

ADAM17 (TACE) = ADAM17 (TACE) (Homo sapiens, UniProt P78536); test: TACE fluorometric inhibition assay (Enzo kit BML-AK310)
Protocol: as §1
The TACE Fluorometric Drug Discovery Kit (catalog #BML-AK310) is a complete assay system designed to screen ADAM17 (TACE) inhibitors using a quenched fluorogenic peptide: Mca-PLAQAV-Dpa-RSSSR—NH2. Mca fluorescence is quenched by the Dpa group until cleavage by proteases separates the two moieties leading to an increase in Mca fluorescence.
The inhibitory activity of the compounds of the invention against TACE was tested according to the manufacturer's assay protocol and the fluorescence was monitored at excitation/emission wavelengths=320 nm/420 nm using Tecan Infinite® 200 Pro F Nano^+ microplate reader.
as §4

MMP13 = molecular target: T3, MMP13 (Homo sapiens, UniProt P45452); test: MMP-13 colorimetric inhibition assay (Enzo kit BML-AK412)
T3 construct: purchased Enzo Life Sciences, Inc. BML-AK412
Protocol: as §1
as §2, with “MMP-13” for “MMP-1”, “#BML-AK412)” for “#BML-AK404)”, “metalloproteinase-13” for “metalloproteinase-1”
as §3, §4

[1] = thiopeptide substrate, absorbance 415 nm, read-out: MMP 1 IC50 class
[2] = thiopeptide substrate, absorbance 415 nm, read-out: MMP 9 IC50 class
[3] = thiopeptide substrate, absorbance 415 nm, read-out: MMP 2 IC50 class
[4] = quenched fluorogenic peptide, ex/em 320/420 nm, read-out: TACE IC50 class
[5] = thiopeptide substrate, absorbance 415 nm, read-out: MMP 13 IC50 class

Sequence of ADAM17 (TACE) (P78536 215-477 limits assumed): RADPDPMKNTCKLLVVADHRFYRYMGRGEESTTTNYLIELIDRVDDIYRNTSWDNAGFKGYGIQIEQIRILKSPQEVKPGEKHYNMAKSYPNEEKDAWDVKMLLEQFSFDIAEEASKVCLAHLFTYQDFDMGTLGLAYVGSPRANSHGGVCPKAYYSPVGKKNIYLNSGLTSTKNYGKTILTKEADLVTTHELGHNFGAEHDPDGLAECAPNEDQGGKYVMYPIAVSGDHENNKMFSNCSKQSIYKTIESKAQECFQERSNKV
Sequence of MMP9 (P14780 94-707): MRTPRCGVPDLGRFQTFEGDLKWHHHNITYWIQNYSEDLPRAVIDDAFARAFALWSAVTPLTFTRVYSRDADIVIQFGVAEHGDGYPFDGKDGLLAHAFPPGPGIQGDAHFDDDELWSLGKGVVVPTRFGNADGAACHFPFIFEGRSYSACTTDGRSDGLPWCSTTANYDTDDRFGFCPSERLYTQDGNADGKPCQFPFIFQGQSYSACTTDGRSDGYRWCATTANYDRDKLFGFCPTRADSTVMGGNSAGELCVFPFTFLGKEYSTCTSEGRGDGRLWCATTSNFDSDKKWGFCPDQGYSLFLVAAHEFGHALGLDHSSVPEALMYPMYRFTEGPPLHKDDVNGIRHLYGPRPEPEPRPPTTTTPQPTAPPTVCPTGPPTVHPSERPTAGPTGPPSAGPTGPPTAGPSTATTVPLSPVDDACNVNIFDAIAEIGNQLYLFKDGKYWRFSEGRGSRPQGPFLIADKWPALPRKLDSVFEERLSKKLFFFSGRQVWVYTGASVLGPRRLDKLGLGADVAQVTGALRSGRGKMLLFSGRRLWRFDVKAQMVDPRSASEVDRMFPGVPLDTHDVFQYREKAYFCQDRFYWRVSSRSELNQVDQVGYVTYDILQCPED

Row | Compound | pIC50 (MMP1; [1]) | pIC50 (MMP9; [2]) | pIC50 (MMP2; [3]) | pIC50 (ADAM17 (TACE); [4]) | pIC50 (MMP13; [5]) | pIC50 (MMP1) | pIC50 (MMP9) | pIC50 (MMP2) | pIC50 (ADAM17 (TACE)) | pIC50 (MMP13)
1 | COCCOC(=O)N1[C@@H]2CC[C@H]1[C@H](C(=O)NO)N(S(=O)(=O)c1ccc(Oc3ccc(F)cc3)cn1)C2 [Example 14, 2-methoxyethyl (1S,2R,5R)-3-((5-(4-fluorophenoxy)pyridin-2-yl)sulfonyl)-2-(hydroxycarbamoyl)-3,8-diazabicyclo[3.2.1]octane-8-carboxylate] | 5.00 to 6.00 | > 7.30 | > 7.30 | 5.00 to 6.00 | > 7.30 |  |  |  |  | 
2 | COCCOC(=O)N1[C@@H]2CC[C@H]1[C@H](C(=O)NO)N(S(=O)(=O)N1CCC(Oc3ccc(F)cc3)C1)C2 (stereo partly drawn) [Example 47, 2-methoxyethyl (1S,2R,5R)-3-((3-(4-fluoro-phenoxy)-pyrrolidin-1-yl)-sulfonyl)-2-(hydroxy-carbamoyl)-3,8-diazabicyclo-[3.2.1]octane-8-carboxylate] |  |  |  |  |  | < 5.00 | 5.00 to 6.00 | 5.00 to 6.00 | 6.00 to 7.30 | 5.00 to 6.00
3 | COCCOC(=O)N1[C@@H]2CC[C@H]1[C@H](C(=O)NO)N(S(=O)(=O)N1CCC(Oc3ccc(Cl)cc3)C1)C2 (stereo partly drawn) [Example 46, 2-methoxyethyl (1S,2R,5R)-3-((3-(4-chloro-phenoxy)-pyrrolidin-1-yl)-sulfonyl)-2-(hydroxy-carbamoyl)-3,8-diazabicyclo-[3.2.1]octane-8-carboxylate] |  |  |  |  |  | < 5.00 | 6.00 to 7.30 | 6.00 to 7.30 | 6.00 to 7.30 | 6.00 to 7.30
4 | COCCOC(=O)N1[C@@H]2CC[C@H]1[C@H](C(=O)NO)N(S(=O)(=O)N1CCN(C(=O)c3ccc(Cl)cc3)CC1)C2 [Example 78, 2-methoxyethyl (1S,2R,5R)-3-((4-(4-chlorobenzoyl)piperazin-1-yl)sulfonyl)-2-(hydroxycarbamoyl)-3,8-diazabicyclo[3.2.1]octane-8-carboxylate] | < 5.00 | 5.00 to 6.00 | 5.00 to 6.00 | 5.00 to 6.00 | 5.00 to 6.00 |  |  |  |  | 
5 | CC(C)Oc1ccc(Oc2ccc(S(=O)(=O)N3C[C@H]4CC[C@@H]([C@@H]3C(=O)NO)N4C(=O)C(C)C)cn2)cc1 [Example 60, (1S,2R,5R)-N-hydroxy-8-isobutyry1-3-((6-(4-isopropoxy-phenoxy)pyridin-3-yl)sulfonyl)-3,8-diazabicyclo-[3.2.1]octane-2-carboxamide] | 5.00 to 6.00 | > 7.30 | > 7.30 | < 5.00 | > 7.30 |  |  |  |  | 
6 | COCCOC(=O)N1[C@@H]2CC[C@H]1[C@H](C(=O)NO)N(S(=O)(=O)c1ccc(Oc3nc4cc(Cl)ccc4o3)c(F)c1)C2 [Example 81, 2-methoxyethyl (1S,2R,5R)-3-((4-((5-chlorobenzo[d]-oxazol-2-yl)oxy)-3-fluorophenyl)sulfonyl)-2-(hydroxy-carbamoyl)-3,8-diazabicyclo[3.2.1]-octane-8-carboxylate] | < 5.00 | 5.00 to 6.00 | < 5.00 | 5.00 to 6.00 | < 5.00 |  |  |  |  | 
7 | COCCOC(=O)N1[C@@H]2CC[C@H]1[C@H](C(=O)NO)N(S(=O)(=O)c1ccc(Oc3nc4cc(F)ccc4o3)c(F)c1)C2 [Example 83, 2-methoxyethyl (1S,2R,5R)-3-((3-fluoro-4-((5-fluoro-benzo[d]oxazol-2-yl)oxy)phenyl)sulfonyl)-2-(hydroxy-carbamoyl)-3,8-diazabicyclo[3.2.1]-octane-8-carboxylate] |  | 5.00 to 6.00 | 5.00 to 6.00 |  | 5.00 to 6.00 |  |  |  |  | 
8 | COCCOC(=O)N1[C@@H]2CC[C@H]1[C@H](C(=O)NO)N(S(=O)(=O)c1ccc(Oc3ccc(C)nc3)nc1)C2 [Example 16, 2-methoxyethyl (1S,2R,5R)-2-(hydroxycarbamoyl)-3-((6-((6-methylpyridin-3-yl)-oxy)pyridin-3-yl)-sulfonyl)-3,8-diaza-bicyclo[3.2.1]octane-8-carboxylate] | 5.00 to 6.00 | 6.00 to 7.30 | > 7.30 | 5.00 to 6.00 | 6.00 to 7.30 |  |  |  |  | 
9 | COCCOC(=O)N1[C@@H]2CC[C@H]1[C@H](C(=O)NO)N(S(=O)(=O)c1cc(F)c(Oc3ccc(Cl)cc3)c(F)c1)C2 [Example 2, (1S,2R,5R)-2-methoxyethyl 3-((4-(4-chlorophenoxy)-3,5-difluoro-phenyl)sulfonyl)-2-(hydroxycarbamoyl)-3,8-diazabicyclo-[3.2.1]octane-8-carboxylate] |  | 6.00 to 7.30 | 6.00 to 7.30 |  | 6.00 to 7.30 |  |  |  |  | 
10 | COCCOC(=O)N1[C@@H]2CC[C@H]1[C@H](C(=O)NO)N(S(=O)(=O)c1ccc(Oc3cncc(Cl)c3)nc1)C2 [Example 15, (1S,2R,5R)-2-methoxyethyl 3-((6-((5-chloropyridin-3-yl)oxy)pyridin-3-yl)-sulfonyl)-2-(hydroxycarbamoyl)-3,8-diazabicyclo[3.2.1]-octane-8-carboxylate] | 5.00 to 6.00 | 6.00 to 7.30 | 6.00 to 7.30 | 6.00 to 7.30 | 6.00 to 7.30 |  |  |  |  | 
11 | COCCOC(=O)N1[C@H]2CC[C@@H]1[C@@H](C(=O)NO)N(S(=O)(=O)c1cc(F)c(Oc3ccc(Cl)cc3)c(F)c1)C2 [Example 3, 2-methoxyethyl (1R,2S,5S)-3-((4-(4-chlorophenoxy)-3,5-difluorophenyl)-sulfonyl)-2-(hydroxycarbamoyl)-3,8-diaza-bicyclo[3.2.1]octane-8-carboxylate] |  | 5.00 to 6.00 | 5.00 to 6.00 |  | 5.00 to 6.00 |  |  |  |  | 
12 | COCCOC(=O)N1[C@@H]2CC[C@H]1[C@H](C(=O)NO)N(S(=O)(=O)c1ccc(Oc3nc4ccccc4o3)nc1)C2 [Example 84, 2-methoxyethyl (1S,2R,5R)-3-((6-(benzo[d]oxazol-2-yloxy)pyridin-3-yl)sulfonyl)-2-(hydroxycarbamoyl)-3,8-diazabicyclo[3.2.1]octane-8-carboxylate] |  | < 5.00 | < 5.00 |  | < 5.00 |  |  |  |  | 
13 | COCCOC(=O)N1[C@@H]2CC[C@H]1[C@H](C(=O)NO)N(S(=O)(=O)c1ccc(-c3cccc(F)c3)nc1)C2 [Example 4, 2-methoxyethyl (1S,2R,5R)-3-((6-(3-fluorophenyl)pyridin-3-yl)sulfonyl)-2-(hydroxycarbamoyl)-3,8-diaza-bicyclo[3.2.1]octane-8-carboxylate] |  | 5.00 to 6.00 | 6.00 to 7.30 |  | 6.00 to 7.30 |  |  |  |  | 

Source: US20250215010A1, “DIAZABICYCLOOCTANE DERIVATIVES USEFUL AS MATRIX METALLOPROTEINASE INHIBITORS” (VASA THERAPEUTICS SPOLKA Z OGRANICZONA ODPOWIEDZIALNOSCIA, priority 2022, published 2025)
